The results in this text go back to PubChem BioAssay (NCI).

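Method: 48-hour compound exposure of cells in 96-well plates, five concentrations, linear interpolation of endpoints. TGI: total growth inhibition.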

Common to all, as to experiment: DTP human tumour cell line panel, 48 h
Assay [1] deals with ACHN renal.
Assay [2] has as its system UACC-257 melanoma.
Assay [3] relates to SW-620 colon.
Assay [4] has as its system 786-0 renal.
In assay [5] the test system is A498 renal.
Assay [6] deals with NCI-H460 lung.
Assay [7] concerns NCI-H522 lung.
Assay [8] concerns KM12 colon.
Assay [9] concerns HOP-92 NSCLC.

With `C=CCC12CC(=O)CCC1c1ccc(OC)cc1C2=O` (stereo not drawn), the concentration for total growth inhibition (TGI) in assay [1], in assay [2], in assay [3], in [4], in assay [5] and in [6] was greater than 100 µM in each case. The total growth inhibition concentration (TGI) in assay [7], in assay [8] and in assay [9] was greater than 100 µM in each case.

Regarding `CC(=O)OCC1OC(n2c(=O)[nH]c(=O)c3n[nH]nc32)C(OC(C)=O)C(OC(C)=O)C1OC(C)=O` (stereo not drawn), the concentration for total growth inhibition (TGI) in [1], in [2], in [3], in [4], in assay [5] and in assay [6] was greater than 100 µM throughout. Further, the total growth inhibition concentration (TGI) in assay [7] and in [9] was greater than 100 µM throughout.

For the compound `Brc1cc(C2OCCCO2)ccc1OCc1ccccc1`, the concentration for total growth inhibition (TGI) in assay [1], in [2], in [3], in assay [4], in assay [5] and in assay [6] was greater than 100 µM each time. The TGI in assay [7], in assay [8] and in assay [9] was greater than 100 µM each time.

Regarding `O=c1cc[nH]cc1-c1c[nH]ccc1=O`, the TGI in [1], in assay [2], in assay [3], in [4], in [5] and in [6] was greater than 100 µM in each case. Further, the TGI in [7], in [8] and in assay [9] was greater than 100 µM each time.

Take `CCOC(=O)c1sc2c(C(=O)OCC)n3cc(C)cc(C)c3c2c1O`: the TGI in assay [1], in [3], in assay [4], in assay [6], in assay [7] and in [8] was greater than 100 µM throughout. The TGI (commonly the concentration giving total growth inhibition) in assay [9] was greater than 100 µM.

As to `COC(=O)C(=O)C(C(=O)C(=O)Nc1ccccc1[N+](=O)[O-])c1nc2ccc([N+](=O)[O-])cc2[nH]c1=O` (stereo not drawn), the TGI in assay [1], in assay [2], in assay [3], in assay [4], in assay [5] and in [6] was greater than 100 µM each time. In addition, the TGI in [7], in assay [8] and in assay [9] was greater than 100 µM each time.

For the compound `CCCC(O)c1cn(-c2cccc(S(=O)(=O)O)c2)nn1` (stereo not drawn), the TGI in assay [1], in assay [2], in assay [3], in [4], in [5] and in assay [6] was greater than 100 µM each time. For the same compound, the concentration for total growth inhibition (TGI) in assay [7], in [8] and in assay [9] was greater than 100 µM in each case.

As for `COc1ccc(-c2cc3ccccc3[nH]c2=O)cc1OC`, the TGI in assay [1], in assay [2], in assay [3], in [4], in assay [6] and in [7] was greater than 100 µM throughout. Further, the TGI in [8] is greater than 100 µM.

As to `CS(=O)(=O)c1ccc(COP(N)(=O)N(CCCl)CCCl)cc1` (stereo not drawn), the concentration for total growth inhibition (TGI) in assay [1], in [2], in assay [3], in [4], in assay [5] and in [6] was greater than 100 µM throughout. Also, the TGI in [7], in assay [8] and in assay [9] was greater than 100 µM in each case.

As for `Cc1cc(=O)[nH]c(NNC(C#N)c2ccccc2O)n1` (stereo not drawn), the TGI was 90.8 µM in [1]; greater than 100 µM in assay [2]; greater than 100 µM in assay [3]; greater than 100 µM in [4]; greater than 100 µM in assay [6]; greater than 100 µM in [7]. Besides, the total growth inhibition concentration (TGI) in assay [8] and in assay [9] was greater than 100 µM in each case.

Consider `CC(C)N(C(=O)C12C3C4C5(C(=O)O)C(C1C35I)C42C(=O)O)C(C)C` (stereo not drawn), for which the TGI in assay [1], in assay [2], in assay [3], in assay [4], in [5] and in assay [6] was greater than 100 µM in each case. Besides, the concentration for total growth inhibition (TGI) in assay [7], in assay [8] and in assay [9] was greater than 100 µM throughout.

Consider `COc1ccc(NC(=O)CC(=O)N/N=C(\C)c2cc3ccccc3oc2=O)cc1`, for which the total growth inhibition concentration (TGI) in assay [1], in assay [2], in assay [3], in [4], in [6] and in [7] was greater than 100 µM each time. This compound yielded a TGI in [8] greater than 100 µM.

Consider `CN1CCN=C1c1nnn(-c2ccc([N+](=O)[O-])cc2)c1-c1ccccc1`, for which the TGI in assay [1], in assay [2], in assay [3], in assay [4], in assay [5] and in assay [6] was greater than 100 µM in each case. The concentration for total growth inhibition (TGI) is greater than 100 µM in assay [7], greater than 100 µM in [8] and 94.5 µM in [9].

Consider `CCC(C)(O)c1cn(-c2ccc(Cl)cc2)nn1` (stereo not drawn), for which the TGI in assay [1], in assay [2], in assay [3], in assay [4], in assay [5] and in [6] was greater than 100 µM in each case. The TGI in assay [7], in [8] and in [9] was greater than 100 µM in each case.

For the compound `O=C(O)c1c2c(cc3c(=O)c4ccccc4[nH]c13)CCCC2`, the TGI in [1], in [2], in [3], in [4], in [6] and in assay [9] was greater than 100 µM each time.

For `O=C1C(Cl)=C(Cl)C(=O)N1c1ccc(Cl)c(Cl)c1Cl`, the concentration for total growth inhibition (TGI) in assay [1], in assay [2], in [3], in assay [4], in [5] and in assay [6] was greater than 100 µM throughout. Besides, the TGI in assay [7] was 28.8 µM; in [8], greater than 100 µM; in [9], 88.5 µM.
